For the test, the target named is Trm6p/Trm61p complex (yeast tRNA m^1A58 Mtase) (Saccharomyces cerevisiae, UniProt P46959). The test can be described thus: biochemical.

We go through 1 molecule from paper PMC2175304 (Nucleic Acids Research, 2007).

Trm6p/Trm61p complex (yeast tRNA m^1A58 Mtase), sequence (P46959 whole entry): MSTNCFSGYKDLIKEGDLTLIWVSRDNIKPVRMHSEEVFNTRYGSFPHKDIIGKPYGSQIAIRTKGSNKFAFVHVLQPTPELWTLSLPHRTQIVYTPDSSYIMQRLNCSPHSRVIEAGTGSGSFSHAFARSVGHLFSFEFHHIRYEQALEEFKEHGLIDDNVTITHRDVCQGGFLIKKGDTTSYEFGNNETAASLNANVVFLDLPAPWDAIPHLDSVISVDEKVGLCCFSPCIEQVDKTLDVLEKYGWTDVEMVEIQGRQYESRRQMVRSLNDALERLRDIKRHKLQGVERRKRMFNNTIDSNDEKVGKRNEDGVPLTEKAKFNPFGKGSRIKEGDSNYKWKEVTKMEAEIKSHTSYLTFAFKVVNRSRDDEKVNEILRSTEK
Trm6p/Trm61p complex (yeast tRNA m^1A58 Mtase), sequence (P41814 whole entry partner): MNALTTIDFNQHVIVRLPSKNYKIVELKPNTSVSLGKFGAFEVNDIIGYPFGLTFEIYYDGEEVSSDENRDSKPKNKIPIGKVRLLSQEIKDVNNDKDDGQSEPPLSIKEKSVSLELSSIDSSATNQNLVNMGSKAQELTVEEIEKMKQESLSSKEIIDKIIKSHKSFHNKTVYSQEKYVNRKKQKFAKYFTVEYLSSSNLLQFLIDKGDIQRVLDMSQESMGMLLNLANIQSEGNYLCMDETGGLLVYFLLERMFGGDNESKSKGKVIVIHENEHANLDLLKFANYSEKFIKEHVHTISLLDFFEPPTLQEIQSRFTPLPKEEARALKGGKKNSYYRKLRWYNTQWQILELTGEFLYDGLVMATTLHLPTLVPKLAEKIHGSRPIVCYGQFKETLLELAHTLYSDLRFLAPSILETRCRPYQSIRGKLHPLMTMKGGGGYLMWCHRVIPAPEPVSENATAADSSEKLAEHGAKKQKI

With `C[S+](CC[C@H](N)C(=O)O)C[C@H]1O[C@@H](n2cnc3c(N)ncnc32)[C@H](O)[C@@H]1O` (stereo partly shown) [AdoMet], the Kd (commonly the free concentration of one partner at which half of the binding sites on the other are occupied at equilibrium, for simple one-to-one binding) came to 376 ± 73 µM.
